Patent publication US20090118332A1, “Therapeutic Agents - 551” (AstraZeneca AB, priority 2006, published 2009)

Molecular target: T1, human Fatty Acid Synthase (Homo sapiens, UniProt P49327)
T1 construct: made in house
Experiment: Human FAS enzyme assay (decrease in NADPH fluorescence)
Assay type: biochemical
Conditions: % inhibition at a concentration of 100 μmolar
In short: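 In-house human FAS was preincubated with compound and NADPH for 15 min at room temperature in 0.1 M Tris pH 7.5 with EDTA, glutathione and BSA. Malonyl CoA and acetyl CoA (500 μM and 150 μM in the added mix) were then added for 60 min. IC50 came from time-zero-subtracted NADPH fluorescence (340/460 nm).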

T1 sequence (P49327 whole entry): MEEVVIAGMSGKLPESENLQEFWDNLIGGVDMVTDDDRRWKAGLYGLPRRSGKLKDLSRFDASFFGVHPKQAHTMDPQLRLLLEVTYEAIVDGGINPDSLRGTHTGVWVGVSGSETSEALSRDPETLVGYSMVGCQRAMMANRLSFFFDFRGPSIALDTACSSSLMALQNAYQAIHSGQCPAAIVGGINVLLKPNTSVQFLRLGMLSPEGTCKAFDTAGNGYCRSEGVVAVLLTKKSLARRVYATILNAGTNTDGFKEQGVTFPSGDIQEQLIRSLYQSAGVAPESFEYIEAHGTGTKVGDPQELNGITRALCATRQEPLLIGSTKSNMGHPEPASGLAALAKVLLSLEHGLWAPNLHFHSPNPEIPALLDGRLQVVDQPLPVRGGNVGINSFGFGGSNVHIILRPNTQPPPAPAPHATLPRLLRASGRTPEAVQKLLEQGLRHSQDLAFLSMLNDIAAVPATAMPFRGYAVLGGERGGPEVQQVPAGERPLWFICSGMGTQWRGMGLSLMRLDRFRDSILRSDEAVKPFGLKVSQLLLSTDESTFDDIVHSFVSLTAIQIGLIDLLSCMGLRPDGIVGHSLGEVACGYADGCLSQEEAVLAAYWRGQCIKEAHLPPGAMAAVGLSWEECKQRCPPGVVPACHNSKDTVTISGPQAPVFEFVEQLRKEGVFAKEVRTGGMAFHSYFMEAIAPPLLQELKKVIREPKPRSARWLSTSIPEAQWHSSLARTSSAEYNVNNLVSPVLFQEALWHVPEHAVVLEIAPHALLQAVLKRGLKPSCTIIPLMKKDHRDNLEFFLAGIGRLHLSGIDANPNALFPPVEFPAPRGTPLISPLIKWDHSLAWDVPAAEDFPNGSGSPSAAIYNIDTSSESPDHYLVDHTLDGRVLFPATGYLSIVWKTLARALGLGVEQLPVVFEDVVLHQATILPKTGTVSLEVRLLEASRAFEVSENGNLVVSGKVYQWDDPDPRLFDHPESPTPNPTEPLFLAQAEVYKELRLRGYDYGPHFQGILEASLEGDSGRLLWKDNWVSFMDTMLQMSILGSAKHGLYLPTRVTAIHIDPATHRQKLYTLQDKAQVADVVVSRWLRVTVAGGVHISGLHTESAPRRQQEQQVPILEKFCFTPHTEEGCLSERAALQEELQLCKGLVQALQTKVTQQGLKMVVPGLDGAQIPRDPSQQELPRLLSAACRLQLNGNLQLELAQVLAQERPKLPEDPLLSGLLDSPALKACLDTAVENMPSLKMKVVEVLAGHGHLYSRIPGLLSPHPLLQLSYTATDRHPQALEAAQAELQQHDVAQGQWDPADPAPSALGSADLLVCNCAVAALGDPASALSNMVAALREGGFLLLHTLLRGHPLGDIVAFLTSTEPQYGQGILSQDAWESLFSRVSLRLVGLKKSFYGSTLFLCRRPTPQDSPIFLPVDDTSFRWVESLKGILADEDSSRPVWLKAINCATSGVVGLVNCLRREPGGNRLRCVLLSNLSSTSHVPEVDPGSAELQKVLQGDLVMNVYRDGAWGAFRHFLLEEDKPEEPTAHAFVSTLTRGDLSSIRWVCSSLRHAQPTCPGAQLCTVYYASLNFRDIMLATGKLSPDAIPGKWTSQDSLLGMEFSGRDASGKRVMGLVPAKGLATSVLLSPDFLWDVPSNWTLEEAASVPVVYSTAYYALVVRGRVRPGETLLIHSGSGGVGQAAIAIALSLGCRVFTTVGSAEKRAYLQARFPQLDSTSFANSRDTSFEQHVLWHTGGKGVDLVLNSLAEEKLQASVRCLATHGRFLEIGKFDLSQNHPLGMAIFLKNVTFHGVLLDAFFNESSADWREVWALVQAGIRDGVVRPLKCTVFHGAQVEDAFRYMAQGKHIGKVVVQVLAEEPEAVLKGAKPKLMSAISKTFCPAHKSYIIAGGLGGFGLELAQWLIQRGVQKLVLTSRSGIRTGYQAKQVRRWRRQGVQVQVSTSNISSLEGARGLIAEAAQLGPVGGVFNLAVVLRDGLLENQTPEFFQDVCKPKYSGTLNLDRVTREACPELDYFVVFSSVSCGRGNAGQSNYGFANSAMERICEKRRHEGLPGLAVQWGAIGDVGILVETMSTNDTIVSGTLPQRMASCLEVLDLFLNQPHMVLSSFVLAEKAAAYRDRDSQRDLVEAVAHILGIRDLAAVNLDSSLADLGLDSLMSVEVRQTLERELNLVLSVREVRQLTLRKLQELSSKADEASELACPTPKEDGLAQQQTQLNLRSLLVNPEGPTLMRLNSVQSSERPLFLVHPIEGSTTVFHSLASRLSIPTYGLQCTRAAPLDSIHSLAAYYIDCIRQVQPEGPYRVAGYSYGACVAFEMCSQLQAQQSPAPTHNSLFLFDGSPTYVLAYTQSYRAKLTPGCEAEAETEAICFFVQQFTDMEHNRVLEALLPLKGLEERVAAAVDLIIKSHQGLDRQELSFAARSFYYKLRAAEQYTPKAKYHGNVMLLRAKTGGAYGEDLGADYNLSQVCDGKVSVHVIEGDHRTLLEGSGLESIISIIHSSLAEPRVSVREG

| SMILES | inhibition at 100 µM [%] |
| --- | --- |
| Cc1ccc(C(=O)N2CCC(c3ccc(C#N)cc3)CC2)cc1NC(=O)NCc1ccn(C)n1 [Example 290, 1-[5-[4-(4-cyanophenyl)piperidine-1-carbonyl]-2-methyl-phenyl]-3-[(1-methylpyrazol-3-yl)methyl]urea] | 102 |
| Cc1ccc(C(=O)N2CCC(c3ccc(C#N)cc3)CC2)cc1NC(=O)NCc1ncccn1 [Example 291, 1-[5-[4-(4-cyanophenyl)piperidine-1-carbonyl]-2-methyl-phenyl]-3-(pyrimidin-2-ylmethyl)urea] | 89.6 |
| Cc1cc(CNC(=O)Nc2cc(C(=O)N3CCC(c4ccc(C#N)cc4)CC3)ccc2C)[nH]n1 [Example 292, 1-[5-[4-(4-cyanophenyl)piperidine-1-carbonyl]-2-methyl-phenyl]-3-[(5-methyl-2H-pyrazol-3-yl)methyl]urea] | 95.6 |
| Cc1ccc(C(=O)N2CCC(c3ccc(C#N)cc3)CC2)cc1NC(=O)NCc1cnccn1 [Example 293, 1-[5-[4-(4-cyanophenyl)piperidine-1-carbonyl]-2-methyl-phenyl]-3-(pyrazin-2-ylmethyl)urea] | 92.5 |
| Cc1cc(C)c(C(=O)N2CCC(c3ccc(C#N)cc3)CC2)cc1NC(=O)NCCCS(C)(=O)=O [Example 294, 1-[5-[4-(4-cyanophenyl)piperidine-1-carbonyl]-2,4-dimethyl-phenyl]-3-(3-methylsulfonylpropyl)urea] | 92.2 |
| CCC(=O)N1CCCC(NC(=O)Nc2cc(C(=O)N3CCC(c4ccc(C#N)cc4)CC3)ccc2C)C1 (stereo not drawn) [Example 295, 3-[5-[4-(4-cyanophenyl)piperidine-1-carbonyl]-2-methyl-phenyl]-1-(1-propanoyl-3-piperidyl)urea] | 97.2 |
| Cc1ccc(C(=O)N2CCC(c3ccc(C#N)cc3)CC2)cc1NC(=O)NC1CCCN(S(C)(=O)=O)C1 (stereo not drawn) [Example 296, 1-[5-[4-(4-cyanophenyl)piperidine-1-carbonyl]-2-methyl-phenyl]-3-(1-methylsulfonyl-3-piperidyl)urea] | 103 |
| CCS(=O)(=O)N1CCCC(NC(=O)Nc2cc(C(=O)N3CCC(c4ccc(C#N)cc4)CC3)ccc2C)C1 (stereo not drawn) [Example 297, 3-[5-[4-(4-cyanophenyl)piperidine-1-carbonyl]-2-methyl-phenyl]-1-(1-ethylsulfonyl-3-piperidyl)urea] | 97.9 |
| CCc1ccc(C(=O)N2CCC(c3ccc(C#N)cc3)CC2)cc1NC(=O)NC1COC1 [Example 298, 1-[5-[4-(4-cyanophenyl)piperidine-1-carbonyl]-2-ethyl-phenyl]-3-(oxetan-3-yl)urea] | 95.8 |
| Cc1ccc(C(=O)N2CCC(c3ccc(C#N)cc3)CC2)cc1NC(=O)NC1COC1 [Example 299, 1-[5-[4-(4-cyanophenyl)piperidine-1-carbonyl]-2-methyl-phenyl]-3-(oxetan-3-yl)urea] | 95.1 |
| Cc1ccc(C(=O)N2CCC(c3ccc(C#N)cc3)CC2)cc1NC(=O)NC1CNC1 [Example 300, 3-(azetidin-3-yl)-1-[5-[4-(4-cyanophenyl)piperidine-1-carbonyl]-2-methyl-phenyl]urea] | 84.3 |
| Cc1ccc(C(=O)N2CCC(c3ccc(C#N)cc3)CC2)cc1NC(=O)NC1CN(C(=O)C(C)C)C1 [Example 301, 1-[5-[4-(4-cyanophenyl)piperidine-1-carbonyl]-2-methyl-phenyl]-3-[1-(2-methylpropanoyl)azetidin-3-yl]urea] | 96.6 |
| Cc1ccc(C(=O)N2CCC(c3ccc(C#N)cc3)CC2)cc1NC(=O)NC1CN(S(C)(=O)=O)C1 [Example 302, 1-[5-[4-(4-cyanophenyl)piperidine-1-carbonyl]-2-methyl-phenyl]-3-(1-methylsulfonylazetidin-3-yl)urea] | 93.9 |
| Cc1ccc(C(=O)N2CCC(c3ccc(C#N)cc3)CC2)cc1NC(=O)NC1CN(S(=O)(=O)N(C)C)C1 [Example 303, 1-[5-[4-(4-cyanophenyl)piperidine-1-carbonyl]-2-methyl-phenyl]-3-[1-(dimethylsulfamoyl)azetidin-3-yl]urea] | 93.5 |
| Cc1ccc(C(=O)N2CCC(c3ccc(C#N)cc3)CC2)cc1NC(=O)N1CC(N)C1 [Example 306, 3-amino-N-[5-[4-(4-cyanophenyl)piperidine-1-carbonyl]-2-methyl-phenyl]azetidine-1-carboxamide] | 84.7 |
| CC(=O)N1CC(NC(=O)Nc2cc(C(=O)N3CCC(c4ccc(C#N)cc4)CC3)ccc2C)C1 [Example 310, 3-(1-acetylazetidin-3-yl)-1-[5-[4-(4-cyanophenyl)piperidine-1-carbonyl]-2-methyl-phenyl]urea] | 94.5 |
| CCS(=O)(=O)N1CC(NC(=O)Nc2cc(C(=O)N3CCC(c4ccc(C#N)cc4)CC3)ccc2C)C1 [Example 311, 3-[5-[4-(4-cyanophenyl)piperidine-1-carbonyl]-2-methyl-phenyl]-1-(1-ethylsulfonylazetidin-3-yl)urea] | 105 |
| CC(=O)NC1CN(C(=O)Nc2cc(C(=O)N3CCC(c4ccc(C#N)cc4)CC3)ccc2C)C1 [Example 312, 3-acetamido-N-[5-[4-(4-cyanophenyl)piperidine-1-carbonyl]-2-methyl-phenyl]azetidine-1-carboxamide] | 88.8 |
| Cc1ccc(C(=O)N2CCC(c3ccc(C#N)cc3)CC2)cc1NC(=O)N1CC(NS(C)(=O)=O)C1 [Example 313, N-[5-[4-(4-cyanophenyl)piperidine-1-carbonyl]-2-methyl-phenyl]-3-methanesulfonamido-azetidine-1-carboxamide] | 90.5 |
| Cc1ccc(C(=O)N2CCC(c3ccc(C#N)cc3)CC2)cc1NC(=O)N1CC(NS(=O)(=O)N(C)C)C1 [Example 314, N-[5-[4-(4-cyanophenyl)piperidine-1-carbonyl]-2-methyl-phenyl]-3-(dimethylsulfamoylamino)azetidine-1-carboxamide] | 87.4 |
| Cc1ccc(C(=O)N2CCC(c3ccc(C#N)cc3)CC2)cc1NC(=O)N[C@H]1CC[C@H](NC(=O)OC(C)(C)C)C1 [Example 316, tert-butyl N-[(1S,3S)-3-[[5-[4-(4-cyanophenyl)piperidine-1-carbonyl]-2-methyl-phenyl]carbamoylamino]cyclopentyl]carbamate] | 99.6 |
| Cc1ccc(C(=O)N2CCC(c3ccc(C#N)cc3)CC2)cc1NC(=O)N[C@H]1CC[C@H](N)C1 [Example 318, 3-[(1S,3S)-3-aminocyclopentyl]-1-[5-[4-(4-cyanophenyl)piperidine-1-carbonyl]-2-methyl-phenyl]urea] | 93.9 |
| Cc1ccc(C(=O)N2CCC(c3ccc(C#N)cc3)CC2)cc1NC(=O)N[C@H]1CC[C@H](NS(C)(=O)=O)C1 [Example 320, 1-[5-[4-(4-cyanophenyl)piperidine-1-carbonyl]-2-methyl-phenyl]-3-[(1S,3S)-3-methanesulfonamidocyclopentyl]urea] | 94.4 |
| CC(=O)N[C@H]1CC[C@H](NC(=O)Nc2cc(C(=O)N3CCC(c4ccc(C#N)cc4)CC3)ccc2C)C1 [Example 321, N-[(1S,3S)-3-[[5-[4-(4-cyanophenyl)piperidine-1-carbonyl]-2-methyl-phenyl]carbamoylamino]cyclopentyl]acetamide] | 96.7 |
